Laboratory results as given in US8772540B2, “Thermal responsive molecule” (Kyushu University, National University Corporation, priority 2009, dated 2014).

How the values were obtained:
[1] = Confirmation of formation of hydrogel (gelling when heated in water); type: physicochemical
Experimental: Two ml of deionized water was added to 1 mg of the compound (8), which was dissolved by ultrasonication with cooling in an ice bath. With gradually heating up to room temperature, this was statically left as such for 30 minutes.

[2] = Fluorescent spectrum: incorporation of hydrophobic environmental probe ANS-Na into hydrogel; type: physicochemical; conditions: 10 μM ANS-Na, 1 mM Eg3C8U aqueous solution
Experimental: Using ANS-Na (8-anilino-1-naphthalene sulfonic acid sodium salt) known as a hydrophobic environmental probe, the hydrogel was tested for incorporation of a fluorescent substance thereinto.

hydrogel formation ([1]; 1 mg in 2 ml deionized water, transparent solution at 0° C., heated up to room temperature, left 30 minutes): formed a hydrogel
lowermost gelling concentration ([1]; in water, gels when heated): 0.05 wt. %
Structure (SMILES): COCCOCCOCCOCCCCCCNC(=O)Nc1cc(NC(=O)NCCCCCCOCCOCCOCCOC)cc(NC(=O)NCCCCCCOCCOCCOCCOC)c1 [compound (8), 1,1′,1″-(benzene-1,3,5-triyl)tris{3-(2,5,8,11-tetraoxaheptadecan-17-yl)urea}]
fluorescence of ANS-Na in hydrogel versus aqueous solution [2]: fluorescent intensity increased in the hydrogel and was shifted to the short wavelength side
